Like-named read-outs stand apart in the source and are kept apart here.
What was measured:
A2780 cells = experiment: In-vitro cell proliferation assay (SRB), A2780 cells; type: cell-based; conditions: Homo sapiens, A2780, 72 h, A2780 cells, 72 hours, read-out: A2780 IC50
Method in brief: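 SRB read-out: 6% TCA fix 1 h at 4° C., stain, Tris solubilize, A570. Media-only background subtracted; % inhibition from two compound concentrations.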

NAMPT = biological target: T1, NAMPT (Homo sapiens, UniProt P43490); experiment: Biochemical inhibition assay: NAMPT enzymatic reaction, NMN quantified by mass spectrometry; conditions: read-out: Biochem IC50
T1 construct: His tag; host or cells: E. coli
Method in brief: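 Inhibition of E. coli-expressed His-tagged human NAMPT, measured as NMN formation by mass spectrometry after a 30 min room-temperature reaction containing 1 μM NAM, 100 μM PRPP and 2.5 mM ATP.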

T1 sequence (P43490 whole entry): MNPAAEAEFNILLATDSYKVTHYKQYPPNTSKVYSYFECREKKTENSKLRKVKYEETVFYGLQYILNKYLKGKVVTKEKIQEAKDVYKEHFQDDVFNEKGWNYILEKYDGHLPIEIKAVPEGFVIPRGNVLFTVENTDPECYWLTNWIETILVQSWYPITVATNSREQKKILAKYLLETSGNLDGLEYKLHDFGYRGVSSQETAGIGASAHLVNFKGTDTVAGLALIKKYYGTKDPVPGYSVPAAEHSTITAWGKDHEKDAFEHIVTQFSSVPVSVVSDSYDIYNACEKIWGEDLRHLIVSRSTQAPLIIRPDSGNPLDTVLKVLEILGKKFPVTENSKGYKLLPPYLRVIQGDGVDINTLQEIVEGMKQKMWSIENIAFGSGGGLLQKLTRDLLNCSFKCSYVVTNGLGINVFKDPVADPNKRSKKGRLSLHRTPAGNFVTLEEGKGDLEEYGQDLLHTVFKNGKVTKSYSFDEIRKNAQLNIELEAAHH

SMILES | IC50 (A2780 cells; SRB) | IC50 (NAMPT; NAMPT enzymatic reaction) | IC50 (NAMPT; NAMPT enzymatic assay) | IC50 (A2780 cells; SRB assay)
CCCCOc1ccc(Cl)cc1S(=O)(=O)c1ccc(CNC(=O)c2cnc3[nH]ncc3c2)cc1 [N-({4-[(2-butoxy-5-chlorobenzene)sulfonyl]phenyl}methyl)-1H-pyrazolo[3,4-b]pyridine-5-carboxamide] | 73.7 nM | 117 nM | – | –
O=C(NCc1ccc(S(=O)(=O)c2ccc(Cl)cc2)cc1)c1cc2ccncc2o1 [N-({4-[(4-chlorobenzene)sulfonyl]phenyl}methyl)furo[2,3-c]pyridine-2-carboxamide] | 14.2 nM | 4.9 nM | – | –
Cc1nc(C)c(S(=O)(=O)c2ccc(CNC(=O)c3cc4ccncc4o3)cc2)s1 [N-{[4-(dimethyl-1,3-thiazole-5-sulfonyl)phenyl]methyl}furo[2,3-c]pyridine-2-carboxamide] | 10.3 nM | – | 8.3 nM | –
COc1cc(F)ccc1S(=O)(=O)c1ccc(CNC(=O)c2cnc3nccn3c2)cc1 | 73.6 nM | 19.1 nM | – | –
COc1ccc(S(=O)(=O)c2ccc(CNC(=O)c3cnc4[nH]ncc4c3)cc2)c(C)c1 [N-({4-[(4-methoxy-2-methylbenzene)sulfonyl]phenyl}methyl)-1H-pyrazolo[3,4-b]pyridine-5-carboxamide] | 55.5 nM | 29 nM | – | –
COc1ccc(F)cc1S(=O)(=O)c1ccc(CNC(=O)c2cc3ccncc3s2)cc1 | 0.8 nM | 2 nM | – | –
Cn1ncc2ccc(S(=O)(=O)c3ccc(CNC(=O)c4cnc5nccn5c4)cc3)cc21 [N-{[4-(1-methyl-1H-indazole-6-sulfonyl)phenyl]methyl}imidazo[1,2-a]pyrimidine-6-carboxamide] | 5 nM | – | 1.6 nM | –
CC(=O)c1ccccc1S(=O)(=O)c1ccc(CNC(=O)c2cc3cnccc3[nH]2)cc1 [N-({4-[(2-acetylbenzene)sulfonyl]phenyl}methyl)-1H-pyrrolo[3,2-c]pyridine-2-carboxamide] | – | 6 nM | – | 4 nM
CCCCc1ccc(S(=O)(=O)c2ccc(CNC(=O)c3cc4ccncc4o3)cc2)cc1 [N-({4-[(4-butylbenzene)sulfonyl]phenyl}methyl)furo[2,3-c]pyridine-2-carboxamide] | 26.5 nM | 18.1 nM | – | –
O=C(NCc1ccc(S(=O)(=O)c2cccc(-c3ccccc3)c2)cc1)c1cc2ccncc2s1 | 10 nM | 4.5 nM | – | –
CCCCOc1ccc(S(=O)(=O)c2ccc(CNC(=O)c3cc4ccncc4s3)cc2)cc1 | 10.3 nM | 3.6 nM | – | –
Cn1ncc(S(=O)(=O)c2ccc(CNC(=O)c3cnc4nccn4c3)cc2)c1C(F)(F)F [N-({4-[1-methyl-5-(trifluoromethyl)-1H-pyrazole-4-sulfonyl]phenyl}methyl)imidazo[1,2-a]pyrimidine-6-carboxamide] | 67.9 nM | – | 4 nM | –
COc1cc(F)cc(S(=O)(=O)c2ccc(CNC(=O)c3cnc4[nH]ncc4c3)cc2)c1 | 6.3 nM | 4.4 nM | – | –
O=C(NCc1ccc(S(=O)(=O)c2cccc(F)c2Cl)cc1)c1cc2ccncc2o1 | 61.1 nM | 17 nM | – | –
CCCCOc1cc(F)ccc1S(=O)(=O)c1ccc(CNC(=O)c2cc3cnccc3[nH]2)cc1 | 5.5 nM | 31.1 nM | – | –
COc1ccc(C)cc1S(=O)(=O)c1ccc(CNC(=O)c2cc3ccncc3s2)cc1 [N-({4-[(2-methoxy-5-methylbenzene)sulfonyl]phenyl}methyl)thieno[2,3-c]pyridine-2-carboxamide] | – | 6 nM | – | 2.5 nM
CC(C)COc1ccc(S(=O)(=O)c2ccc(CNC(=O)c3cc4ccncc4o3)cc2)cc1 | 11.6 nM | – | 9.4 nM | –
O=C(NCc1ccc(S(=O)(=O)c2ccccc2)cc1)c1cnc2nccn2c1 [N-{[4-(benzenesulfonyl)phenyl]methyl}imidazo[1,2-a]pyrimidine-6-carboxamide] | 57 nM | – | 2 nM | –
CCOc1cccc(F)c1S(=O)(=O)c1ccc(CNC(=O)c2cc3ccncc3o2)cc1 [N-({4-[(2-ethoxy-6-fluorobenzene)sulfonyl]phenyl}methyl)furo[2,3-c]pyridine-2-carboxamide] | 28.3 nM | 17 nM | – | –
Cc1cc(-n2cccn2)ccc1S(=O)(=O)c1ccc(CNC(=O)c2cc3cnccc3[nH]2)cc1 [N-[(4-{[2-methyl-4-(1H-pyrazol-1-yl)benzene]sulfonyl}phenyl)methyl]-1H-pyrrolo[3,2-c]pyridine-2-carboxamide] | – | 4 nM | – | 4 nM
Cc1ccc(S(=O)(=O)c2ccc(CNC(=O)c3cnc4nccn4c3)cc2)c(C)c1 | 49.2 nM | 2.1 nM | – | –
CNC(=O)c1cccc(S(=O)(=O)c2ccc(CNC(=O)c3cnc4nccn4c3)cc2)c1 | 100 to 1000 nM | – | 3.7 nM | –
N#Cc1ccccc1S(=O)(=O)c1ccc(CNC(=O)c2cc3ccncc3s2)cc1 [N-({4-[(2-cyanobenzene)sulfonyl]phenyl}methyl)thieno[2,3-c]pyridine-2-carboxamide] | 67.6 nM | 14.6 nM | – | –
O=C(NCc1ccc(S(=O)(=O)c2ccc(OC(F)(F)F)c(F)c2)cc1)c1cnc2nccn2c1 | 11.8 nM | – | 4 nM | –
O=C(NCc1ccc(S(=O)(=O)c2ccc(C(F)(F)F)c(Cl)c2)cc1)c1cc2cnccc2[nH]1 | 7.7 nM | – | 13.3 nM | –

SMILES | IC50 (A2780 cells; SRB) | IC50 (NAMPT; NAMPT enzymatic reaction) | IC50 (NAMPT; NAMPT enzymatic assay) | IC50 (A2780 cells; SRB assay)
O=C(NCc1ccc(S(=O)(=O)c2cccc(C(F)(F)F)c2Cl)cc1)c1cc2ccncc2o1 | 27.9 nM | – | 18.4 nM | –
Cc1ccc(Cl)c(S(=O)(=O)c2ccc(CNC(=O)c3cnc4nccn4c3)cc2)c1 | 22.5 nM | 5.7 nM | – | –
Cc1ccc(S(=O)(=O)c2ccc(CNC(=O)c3cc4ccncc4o3)cc2)c(F)c1 | 25.3 nM | 12.3 nM | – | –
CC(C)CNC(=O)c1cccc(S(=O)(=O)c2ccc(CNC(=O)c3cc4cnccc4[nH]3)cc2)c1 | 45.8 nM | – | 19.3 nM | –
O=C(NCc1ccc(S(=O)(=O)c2cnn(-c3ccc(F)cc3)c2)cc1)c1cc2ccncc2s1 [N-({4-[1-(4-fluorophenyl)-1H-pyrazole-4-sulfonyl]phenyl}methyl)thieno[2,3-c]pyridine-2-carboxamide] | 6.2 nM | – | 4.5 nM | –
O=C(NCc1ccc(S(=O)(=O)c2cc(Cl)cc(CO)c2)cc1)c1cnc2nccn2c1 | 11.4 nM | – | 3.4 nM | –
Cc1ccc(S(=O)(=O)c2ccc(CNC(=O)c3cc4cnccc4[nH]3)cc2)s1 [N-{[4-(5-methylthiophene-2-sulfonyl)phenyl]methyl}-1H-pyrrolo[3,2-c]pyridine-2-carboxamide] | – | 7 nM | – | 13 nM
CS(=O)(=O)Nc1ccccc1S(=O)(=O)c1ccc(CNC(=O)c2cc3cnccc3[nH]2)cc1 [N-({4-[(2-methanesulfonamidobenzene)sulfonyl]phenyl}methyl)-1H-pyrrolo[3,2-c]pyridine-2-carboxamide] | – | 284 nM | – | > 1000 nM
O=C(NCc1ccc(S(=O)(=O)c2cc(F)ccc2CO)cc1)c1cnc2nccn2c1 | 100 to 1000 nM | – | 12.9 nM | –
COc1ccc(S(=O)(=O)c2ccc(CNC(=O)c3cc4ccncc4s3)cc2)c(Cl)c1 | 5.5 nM | 2.7 nM | – | –
COc1c(F)cccc1S(=O)(=O)c1ccc(CNC(=O)c2cc3ccncc3s2)cc1 | 12.5 nM | 13.3 nM | – | –
O=C(NCc1ccc(S(=O)(=O)N2CCCCC2)cc1)c1cnc2[nH]ncc2c1 [N-{[4-(piperidine-1-sulfonyl)phenyl]methyl}-1H-pyrazolo[3,4-b]pyridine-5-carboxamide] | – | 17 nM | – | 33 nM
COc1ccc(NS(=O)(=O)c2ccc(CNC(=O)c3cc4cnccc4[nH]3)cc2)c(C)c1 [N-({4-[(4-methoxy-2-methylphenyl)sulfamoyl]phenyl}methyl)-1H-pyrrolo[3,2-c]pyridine-2-carboxamide] | – | 1450 nM | – | > 30000 nM
CNC(=O)c1cccc(S(=O)(=O)c2ccc(CNC(=O)c3cc4ccncc4o3)cc2)c1 | 14.3 nM | – | 8.1 nM | –
CC(C)c1ccc(S(=O)(=O)c2ccc(CNC(=O)c3cc4ccncc4s3)cc2)cc1 [N-[(4-{[4-(propan-2-yl)benzene]sulfonyl}phenyl)methyl]thieno[2,3-c]pyridine-2-carboxamide] | – | 6 nM | – | 7.1 nM
CC(C)COc1cccc(S(=O)(=O)c2ccc(CNC(=O)c3cc4ccncc4o3)cc2)c1 | 67.7 nM | – | 14.8 nM | –
CC(C)COc1cc(F)cc(S(=O)(=O)c2ccc(CNC(=O)c3cnc4nccn4c3)cc2)c1 | 3.4 nM | – | 3.1 nM | –
Cc1ccc(Cl)cc1S(=O)(=O)c1ccc(CNC(=O)c2cc3ccncc3s2)cc1 | 6.6 nM | 4.8 nM | – | –
Cc1ccncc1S(=O)(=O)c1ccc(CNC(=O)c2ccc3nccn3c2)cc1 [N-{[4-(4-methylpyridine-3-sulfonyl)phenyl]methyl}imidazo[1,2-a]pyridine-6-carboxamide] | 65.8 nM | – | 66.5 nM | –
O=C(NCc1ccc(S(=O)(=O)c2ccccc2C(F)(F)F)cc1)c1ccc2nccn2c1 [N-[(4-{[2-(trifluoromethyl)benzene]sulfonyl}phenyl)methyl]imidazo[1,2-a]pyridine-6-carboxamide] | 57.9 nM | – | 34.1 nM | –
COc1ccc(S(=O)(=O)c2ccc(CNC(=O)c3cc4cnccc4[nH]3)cc2)cc1OC [N-({4-[(3,4-dimethoxybenzene)sulfonyl]phenyl}methyl)-1H-pyrrolo[3,2-c]pyridine-2-carboxamide] | – | 14 nM | – | 3 nM
O=C(NCc1ccc(S(=O)(=O)c2ccccc2Cl)cc1)c1cc2ccncc2s1 | 6.6 nM | 2.4 nM | – | –
COc1ccccc1S(=O)(=O)c1ccc(CNC(=O)c2cnc3nccn3c2)cc1 [N-({4-[(2-methoxybenzene)sulfonyl]phenyl}methyl)imidazo[1,2-a]pyrimidine-6-carboxamide] | 74.7 nM | 3.9 nM | – | –
CCN(CC)C(=O)c1cc(Cl)cc(S(=O)(=O)c2ccc(CNC(=O)c3cc4ccncc4s3)cc2)c1 | 0.8 nM | – | 2.3 nM | –

Reference: patent US12336981B2, “Compounds and compositions for the inhibition of NAMPT” (Valo Health, Inc., priority 2010, dated 2025)
